Test results as given in PubChem BioAssay (NCI).
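How tested: cells in 96-well plates exposed to compound for 48 hours at five concentrations. GI50 = concentration required for 50% inhibition of growth. TGI: total growth inhibition.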

Columns and labels:
Test in all cases: NCI-60 cell line screen, 48 h
[1] = tested on: M14 melanoma
[2] = tested on: MDA-MB-435
[3] = tested on: MOLT-4 leukemia
[4] = tested on: RXF 393 renal
[5] = tested on: SK-MEL-2 melanoma
[6] = tested on: SK-MEL-5 melanoma
[7] = tested on: T-47D breast
[8] = tested on: U251 CNS
[9] = tested on: EKVX NSCLC
[10] = tested on: PC-3 prostate

| Compound | TGI [1] [µM] | TGI [2] [µM] | TGI [3] [µM] | TGI [4] [µM] | TGI [5] [µM] | TGI [6] [µM] | TGI [7] [µM] | TGI [8] [µM] | GI50 [9] [nM] | TGI [9] [µM] | GI50 [1] [nM] | GI50 [2] [nM] | GI50 [3] [nM] | GI50 [10] [nM] | TGI [10] [µM] | GI50 [4] [nM] | GI50 [5] [µM] | GI50 [6] [nM] | GI50 [7] [nM] | GI50 [8] [nM] |
| --- | --- | --- | --- | --- | --- | --- | --- | --- | --- | --- | --- | --- | --- | --- | --- | --- | --- | --- | --- | --- |
| CCOC(=O)c1c(NCc2ccccc2)n(-c2ccccc2)c(=S)n(-c2ccccc2)c1=O | > 100 | > 100 | > 100 | > 100 | > 100 | > 100 | > 100 | > 100 | – | – | – | – | – | – | – | – | – | – | – | – |
| C[C@H]1c2ccccc2CN1CCCOc1cc2c(cc1OCC1CC1)C1(CCCC1)C(N)=N2 | 1.81 | 5.76 | 4.93 | 3.82 | 6.69 | 1.69 | 2.5 | 4.08 | 4330 | 10.8 | 932 | 1670 | 1400 | 1690 | 7.6 | 1080 | 1.87 | 912 | 990 | 1310 |
| Cc1nn(C(=O)c2ccncc2)c2c1C(c1cccc([N+](=O)[O-])c1)SC(N)=N2 (configuration not stated) | > 10 | > 10 | > 10 | > 10 | > 10 | > 10 | > 10 | > 10 | – | > 10 | – | – | – | – | > 10 | – | – | – | – | – |
| COc1ccc2c(c1)C(=O)c1c-2n(CCCN)c(=O)c2cc([N+](=O)[O-])ccc12 | < 0.01 | 19.5 | < 0.01 | < 0.01 | 8.53 | – | 1.86 | – | < 10 | 2.31 | < 10 | 3300 | < 10 | < 10 | 1.79 | < 10 | 3.06 | – | < 10 | < 10 |
| COC(=O)/C(=C\c1ccco1)P(=O)(OC)OC | > 100 | > 100 | > 100 | > 100 | 83.4 | > 100 | > 100 | > 100 | – | > 100 | – | – | – | – | > 100 | – | – | – | – | – |
| CCN1C(=O)N(CC)C2C1NN=c1s/c(=C\c3ccc[nH]3)c(=O)n12 (configuration not stated) | > 100 | 0.421 | > 100 | 2.19 | > 100 | > 41.5 | > 100 | > 100 | 852 | > 100 | 385 | 83.2 | 543 | 372 | > 100 | 286 | 0.502 | 309 | 400 | 446 |
| O=NN(CCCl)C(=O)NC1CCC(=O)NC1=O (configuration not stated) | 905 | 442 | 329 | 583 | 405 | 273 | 892 | 305 | – | 515 | – | – | – | – | > 1250 | – | – | – | – | – |
| O=C1CSC(c2ccccc2O)N1c1nnc(Cn2ccnc2)o1 (configuration not stated) | 43.9 | 8.55 | > 100 | > 100 | 36.4 | 20.2 | 27.2 | 63.6 | 3500 | 20 | 7970 | 2350 | 5230 | 6200 | 30.4 | 22700 | 15.2 | 7400 | 6110 | 11700 |
| Cc1c2ccncc2c(C)c2c1c1cc(CO)ccc1n2C | 3.27 | 3.74 | 2.13 | 1.7 | 2.54 | 2.7 | 3.52 | 1.94 | 719 | 5.98 | 687 | 467 | 368 | 294 | 1.39 | 410 | 0.819 | 1080 | 268 | 293 |
| N/C(=N\c1nc2ccccc2s1)NC(=NC1CCCCC1)NC1CCCCC1 | 3.31 | 2.8 | 5.45 | 2.86 | 3.47 | 3.21 | 4.15 | 3.48 | 1510 | 2.93 | 1630 | 1440 | 1980 | 1520 | 3.33 | 1460 | 1.78 | 1800 | 1840 | 1680 |
| Cc1oc2c(c1C(=O)N1CC[C@@H](N)C1)C(=O)c1c(c(O)c3ccccc3c1O)C2=O | 2.96 | 10.1 | 1.96 | 11.3 | 23.9 | 16.5 | 7.86 | 9.27 | – | – | 1410 | 2580 | 304 | 1980 | 10.9 | 2530 | 11 | 3970 | 863 | 1270 |
| CC1(C)CC2=C(Sc3ccccc3N2)C(=O)C1C(=O)C(=O)Nc1cc(Cl)ccc1Cl (configuration not stated) | > 100 | > 100 | > 100 | > 100 | > 100 | > 100 | > 100 | > 100 | – | > 100 | – | – | – | – | > 100 | – | – | – | – | – |
| O=c1cccc(C#CC#CCCCO)o1 | 21.5 | 13.6 | > 28.8 | 11.5 | > 100 | 27.3 | 27.3 | 7.96 | 3000 | 7.6 | 4760 | 4990 | 4820 | 3130 | > 22.8 | 3270 | 12.6 | 12300 | 3640 | 2740 |
| CN1CCN(c2cc3nc4ccccc4n(-c4ccc(Cl)cc4)c-3cc2=N)CC1 | 43.8 | 32.6 | 32 | 99.8 | > 100 | 32.7 | > 100 | 49.7 | 30000 | > 100 | 21400 | 17500 | 12800 | 16100 | 86.8 | 20300 | 33.7 | 16300 | > 100000 | 18900 |
| COc1cc2c(cc1-c1coc3cc(OCC=C(C)C)ccc3c1=O)OCO2 | > 100 | > 100 | 45.2 | – | > 100 | 36.9 | > 100 | > 100 | – | > 100 | – | – | – | – | > 100 | – | – | – | – | – |
| NC(=O)c1cccc(-c2cc(C(N)=O)ccc2Cl)c1 | – | – | 95.7 | 5.26 | > 100 | 14.8 | > 100 | > 100 | 4370 | > 100 | – | – | 2220 | 3030 | 40.9 | 2110 | 5.21 | 3620 | 4560 | 2880 |
| O=C(O)COc1ccc(C(=O)/C(SS/C(C(=O)c2ccc(OCC(=O)O)c(Cl)c2Cl)=C2\C=C(c3ccc(Br)cc3)SS2)=C2/C=C(c3ccc(Br)cc3)SS2)c(Cl)c1Cl | > 91.6 | > 100 | 15 | – | 33.7 | 43.1 | 8.61 | 28.2 | – | > 100 | – | – | – | – | – | – | – | – | – | – |
| OCc1ccc(N2CCCC2)cc1Cl | > 100 | > 100 | > 100 | 27.1 | 51.5 | > 75.5 | 2.88 | > 60.8 | – | – | > 100000 | > 100000 | 36900 | > 84700 | > 100 | 9570 | 12.9 | 18700 | 538 | 5520 |
| COc1ccc2c(c1)C(=O)c1c-2c(N2CCNCC2)nc2ccccc12 | 3.51 | 17.9 | 3.03 | – | 21.2 | 24.7 | 4.41 | 16.6 | 4650 | 17.5 | 1910 | 4930 | 688 | 267 | 8.67 | – | 4.62 | 11300 | 1960 | 4600 |
| O=S(=O)(NC1=NCCN1C(=S)SN1CCn2c1nsc2=S)c1cccc(OC(F)(F)F)c1 | 28.1 | 22.1 | 10.8 | 6 | 41.5 | 32.8 | 39.4 | 30.9 | 44000 | > 100 | 13000 | 5860 | 2710 | 9940 | 26.4 | 2420 | 16 | 16600 | 12300 | 17200 |
| Nc1n[nH]c2ccc([C@@H]3Nc4cc5[nH]ncc5cc4[C@H]4C5CCC(C5)[C@@H]34)cc12 (some centres not stated) | > 100 | 6.85 | > 100 | – | > 70.5 | 6.57 | 79.8 | > 58 | 485 | > 100 | 294 | 300 | 442 | 365 | > 41.9 | – | 0.736 | 493 | 498 | 430 |
| COc1cccc(CC(C)=C(c2ccc(OCCCN(C)C)cc2)c2ccc(OCCCN(C)C)cc2)c1 | 0.864 | 0.819 | 1.11 | 2.57 | 1.65 | 1.31 | 0.884 | 0.987 | 1640 | 5.17 | 461 | 444 | 502 | 693 | 2.46 | 597 | 0.601 | 570 | 437 | 479 |
| Nc1cc2cccc[n+]2c2cccc(Cl)c12 | – | 72.2 | – | – | 28.1 | 17.8 | – | 33.8 | 32100 | – | 36400 | 25800 | 7460 | – | – | – | 10.7 | 4940 | 9860 | 6360 |
| Cc1cccc2c(Nc3ccc(NS(C)(=O)=O)cc3)c3ccc([N+](=O)[O-])cc3nc12 | 3.4 | 7.27 | 6.09 | 3.1 | 5.49 | 1.99 | 9.32 | 6.36 | – | – | 808 | 1850 | 300 | 1490 | 7.02 | 1380 | 2.55 | 487 | 147 | 419 |
| NCCC(=O)NC(Cc1cnc[nH]1)C(=O)O (configuration not stated) | > 100 | > 100 | > 100 | – | > 100 | > 100 | > 100 | > 100 | – | > 100 | – | – | – | – | > 100 | – | – | – | – | – |
| CC(=O)C12C[C@](C#N)(N3CCCCCC3)C1C=Cc1ccccc12 (some centres not stated) | > 100 | > 100 | > 100 | > 100 | – | > 100 | > 100 | > 100 | – | > 100 | – | – | – | – | > 100 | – | – | – | – | – |
| CCN(CC)CCC(CNc1c(C)cnc2cc(Cl)ccc12)c1ccc(Cl)cc1 (configuration not stated) | – | – | 23.8 | 18.4 | 14.1 | 3.18 | 10.5 | 13.2 | 5460 | 19.5 | – | – | 5270 | 10700 | 24 | 4390 | 3.91 | 1730 | 2570 | 3830 |
| CC1C2CC(C/C2=N/O)C1(C)C (configuration not stated) | > 100 | > 100 | > 100 | > 100 | – | > 100 | > 100 | > 100 | – | > 100 | – | – | – | – | > 100 | – | – | – | – | – |
| O=c1c(O)cccn1CCCN(CCCn1cccc(O)c1=O)CCn1cccc(O)c1=O | 60.2 | > 100 | > 100 | 9.83 | – | > 100 | > 100 | > 100 | 2790 | > 100 | 5410 | 3460 | 1790 | > 100000 | > 100 | 1860 | – | 2670 | 5640 | 1840 |
| COc1ccc(Oc2ccccc2NC(=O)CNC(=O)c2cccc3ccccc23)cc1 | > 25 | – | > 25 | > 25 | – | 8.41 | 19.6 | > 25 | 1370 | > 25 | 545 | – | 960 | 1060 | > 25 | 494 | – | 377 | 2520 | 1060 |
